Experimental data taken from patent US6500853B1, “Inhibitors of phospholipase enzymes” (Genetics Institute, LLC, priority 1998, dated 2002).
Values belong to the compound of their own block, whether it stands above or below them.

Molecular target: T1, cPLA2 (Homo sapiens, UniProt P47712)
T1 sequence (P47712 1-749): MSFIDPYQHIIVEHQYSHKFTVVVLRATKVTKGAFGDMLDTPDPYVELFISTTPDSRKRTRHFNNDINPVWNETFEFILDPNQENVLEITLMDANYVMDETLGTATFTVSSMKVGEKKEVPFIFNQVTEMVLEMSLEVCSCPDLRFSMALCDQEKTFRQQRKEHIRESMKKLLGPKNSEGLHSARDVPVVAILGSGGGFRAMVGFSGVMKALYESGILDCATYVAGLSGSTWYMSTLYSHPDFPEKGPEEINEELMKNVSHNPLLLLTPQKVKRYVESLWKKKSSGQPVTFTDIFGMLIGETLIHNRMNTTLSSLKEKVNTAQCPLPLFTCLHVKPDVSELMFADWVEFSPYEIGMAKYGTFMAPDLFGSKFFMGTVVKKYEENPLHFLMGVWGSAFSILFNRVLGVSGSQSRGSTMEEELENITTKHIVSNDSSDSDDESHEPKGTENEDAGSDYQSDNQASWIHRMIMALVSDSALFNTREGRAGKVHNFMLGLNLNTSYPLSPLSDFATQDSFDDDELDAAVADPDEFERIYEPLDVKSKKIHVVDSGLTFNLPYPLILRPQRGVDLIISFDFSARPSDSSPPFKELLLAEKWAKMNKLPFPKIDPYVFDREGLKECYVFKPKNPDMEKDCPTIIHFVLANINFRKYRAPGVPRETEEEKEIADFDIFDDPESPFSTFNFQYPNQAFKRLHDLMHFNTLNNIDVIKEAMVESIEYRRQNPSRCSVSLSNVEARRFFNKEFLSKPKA
Experiment: Coumarin Assay (cPLA2 inhibition)
Assay type: biochemical
Settings: for inhibition at 1.1 µM: CONCENTRATION 1.1 micromolar; for inhibition at 2.5 µM: Conc 2.5 uM; for inhibition at 3 µM: Conc 3 uM; for inhibition at 3.3 µM: Conc 3.3 uM
In short: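 Percent inhibition at the stated concentration, from the rate of 460 nm emission rise (360 nm excitation) per minute. Reaction started by adding 4 μg enzyme to compound and 60 μM 7-hydroxycoumarinyl 6-heptenoate in Hepes buffer pH 7.5 with 1 mM EDTA.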

[1] = CONCENTRATION 0.4 micromolar, read-out: PERCENT INHIBITION @

SMILES: O=C(O)CC(=O)Nc1ccc(Cc2cn(C(c3ccccc3)c3ccccc3)c3cc(Cl)ccc23)cc1 [Example 124, sodium 3-{4-[(1-benzhydryl-6-chloro-1H-indol-3-yl)methyl]anilino}-3-oxopropanoic acid]
inhibition at 1.3 µM (CONCENTRATION 1.3 micromolar, read-out: PERCENT INHIBITION @): 50%

SMILES: O=C(O)C(=O)Nc1ccc(Cc2cn(C(c3ccccc3)c3ccccc3)c3cc(Cl)ccc23)cc1 [Example 125, 2-{4-[(1-benzhydryl-6-chloro-1H-indol-3-yl)methyl]anilino}-2-oxoacetic acid]
inhibition at 0.8 µM (CONCENTRATION 0.8 micromolar, read-out: PERCENT INHIBITION @): 50%

SMILES: O=C(O)C1CC1Cc1cn(C(c2ccccc2)c2ccccc2)c2cc(Cl)ccc12 (stereo not drawn) [Example 126, 2-[(1-benzhydryl-6-chloro-1H-indol-3-yl)methyl]cyclopropanecarboxylic acid]
inhibition at 5.5 µM (CONCENTRATION 5.5 micromolar, read-out: PERCENT INHIBITION @): 50%

SMILES: O=C(O)C1CC1Cc1cn(C(c2ccccc2)c2ccccc2)c2cc(Cl)c(F)cc12 (stereo not drawn) [Example 127, 2-[(1-benzhydryl-6-chloro-5-fluoro-1H-indol-3-yl)methyl]cyclopropanecarboxylic acid]
inhibition at 1.1 µM (read-out: PERCENT INHIBITION @): 50%

SMILES: O=C(O)C1CC1Cc1cn(C(c2ccccc2)c2ccccc2)c2cc(Cl)c(Cl)cc12 (stereo not drawn) [Example 128, 2-[(1-benzhydryl-5,6-dichloro-1H-indol-3-yl)methyl]cyclopropanecarboxylic acid]
inhibition at 0.9 µM (CONCENTRATION 0.9 micromolar, read-out: PERCENT INHIBITION @): 50%

SMILES: O=C(O)C1CC1Cc1cn(C(c2ccc(O)cc2)c2ccc(O)cc2)c2cc(Cl)ccc12 (stereo not drawn) [Example 129, 2-({1-[bis(4-hydroxyphenyl)methyl]-6-chloro-1H-indol-3-yl}methyl)cyclopropanecarboxylic acid]
inhibition at 1.1 µM (read-out: PERCENT INHIBITION @): 50%

SMILES: O=C(O)c1ccc(Cc2cn(C(c3ccccc3)c3ccccc3)c3cc(Cl)ccc23)c(O)c1 [Example 130, ′4-[(1-benzhydryl-6-chloro-1H-indol-3-yl)methyl]-3-hydroxybenzoic acid]
PERCENT INHIBITION @ (CONCENTRATION 2 micromolar): 50%

SMILES: O=C(O)c1ccc(Cc2cn(C(c3ccccc3)c3ccccc3)c3cc(Cl)ccc23)c(OCCCO)c1 [Example 131, ′4-[(1-benzhydryl-6-chloro-1H-indol-3-yl)methyl]-3-(3-hydroxypropoxy)benzoic acid]
PERCENT INHIBITION @ (CONCENTRATION 0.6 micromolar): 50%

SMILES: COc1cc(C(=O)O)ccc1Cc1cn(C(c2ccccc2)c2ccc(N)cc2)c2cc(Cl)ccc12 (stereo not drawn) [Example 132, ′4-({1-[(4-aminophenyl)(phenyl)methyl]-6-chloro-1H-indol-3-yl}methyl)-3-methoxybenzoic acid]
PERCENT INHIBITION @ (CONCENTRATION 0.4 micromolar): 50%

SMILES: COc1ccc(C(c2ccccc2)n2cc(Cc3ccc(C(=O)O)cc3OC)c3ccc(Cl)cc32)cc1 (stereo not drawn) [Example 133, ′4-({6-chloro-1-[(4-methoxyphenyl)(phenyl)methyl]-1H-indol-3-yl}methyl)-3-methoxybenzoic acid]
PERCENT INHIBITION @ (CONCENTRATION 0.3 micromolar): 50%

SMILES: COc1ccc(C(c2ccc(OC)cc2)n2cc(Cc3ccc(C(=O)O)cc3OC)c3ccc(Cl)cc32)cc1 [Example 134, ′4-({1-[bis(4-methoxyphenyl)methyl]-6-chloro-1H-indol-3-yl}methyl)-3-methoxybenzoic acid]
PERCENT INHIBITION @ (CONCENTRATION 0.8 micromolar): 50%

SMILES: COc1cc(C(=O)O)ccc1Cc1cn(C(c2ccccc2)c2ccccc2N2CCOCC2)c2cc(Cl)ccc12 (stereo not drawn) [Example 135, ′4-({6-chloro-1-[(2-morpholinophenyl)(phenyl)methyl]-1H-indol-3-yl}methyl)-3-methoxybenzoic acid]
PERCENT INHIBITION @ (CONCENTRATION 0.7 micromolar): 50%

SMILES: COc1ncc(C(c2ccccc2)n2cc(Cc3ccc(C(=O)O)cc3OC)c3ccc(Cl)cc32)c(OC)n1 (stereo not drawn) [Example 136, 4-({6-chloro-1-[(2,4-dimethoxy-5-pyrimidinyl)(phenyl)methyl]-1H-indol-3-yl}methyl)-3-methoxybenzoic acid]
inhibition at 0.4 µM [1]: 50%

SMILES: COc1cc(C(=O)O)ccc1Cc1cn(C(c2ccccc2)c2ccccc2)c2cc(Cl)ccc12 [Example 137, ′4-[(1-benzhydryl-6-chloro-1H-indol-3-yl)methyl]-3-methoxybenzoic acid]
PERCENT INHIBITION @ (CONCENTRATION 0.8 micromolar): 50%

SMILES: COc1cc(C(=O)NCC(=O)O)ccc1Cc1cn(C(c2ccccc2)c2ccccc2)c2cc(Cl)ccc12 [Example 138, 2-({4-[(1-benzhydryl-6-chloro-1H-indol-3-yl)methyl]-3-methoxybenzoyl}amino)acetic acid]
inhibition at 0.4 µM [1]: 50%

SMILES: Cc1c(CCS(=O)(=O)c2ccc(C(=O)O)cc2)c2cc(Cl)c(Cl)cc2n1C(c1ccccc1)c1ccccc1 [Example 142]
% Inhibition (Conc 1.4 uM): 50%

SMILES: Cc1c(CCSc2ccc(C(=O)O)cc2)c2cc(Cl)ccc2n1C(c1ccccc1)c1ccccc1 [Example 146, 4-{[2-(1-benzhydryl-5-chloro-2-methyl-1H-indol-3-yl)ethyl]sulfany}benzoic acid]
% Inhibition (Conc 1.6 uM): 50%

SMILES: O=C(O)c1ccc(OCCc2c(CO)n(C(c3ccccc3)c3ccccc3)c3ccc(Cl)cc23)cc1 [Example 151, 4-{2-[1-benzhydryl-5-chloro-2-(hydroxymethyl)-1H-indol-3-yl]ethoxy}benzoic acid]
inhibition at 3.3 µM: 50%

SMILES: COCc1c(CCOc2ccc(C(=O)O)cc2)c2cc(Cl)ccc2n1C(c1ccccc1)c1ccccc1 [Example 152, 4-{2-[1-benzhydryl-5-chloro-2-(methoxymethyl)-1H-indol-3-yl]ethoxy}benzoic acid]
inhibition at 3.3 µM: 50%

SMILES: O=C(O)c1ccc(OCCc2c(CS(=O)(=O)c3ccccc3)n(C(c3ccccc3)c3ccccc3)c3ccc(Cl)cc23)cc1 [Example 153, 4-(2-{1-benzhydryl-5-chloro-2-[(phenylsulfonyl)methyl]-1H-indol-3-yl}ethoxy)benzoic acid]
inhibition at 3 µM (read-out: % Inhibition): 50%

Now from value to compound:

inhibition at 1.6 µM (Conc 1.6 uM, read-out: % Inhibition): 50%
SMILES: Cc1c(CCS(=O)(=O)c2ccc(C(=O)O)cc2)c2cc(F)ccc2n1C(c1ccccc1)c1ccccc1 [Example 139, 4-{[2-(1-benzhydryl-5-fluoro-2-methyl-1H-indol-3-yl)ethyl]sulfonyl}benzoic acid]

inhibition at 2.5 µM (read-out: % Inhibition): 50%
SMILES: Cc1c(CCS(=O)(=O)c2ccc(C(=O)O)cc2)c2ccc(Cl)cc2n1C(c1ccccc1)c1ccccc1 [Example 140, 4-{[2-(1-benzhydryl-6-chloro-2-methyl-1H-indol-3-yl)ethyl]sulfonyl}benzoic acid]

inhibition at 1.4 µM (Conc 1.4 uM, read-out: % Inhibition): 50%
SMILES: Cc1c(CCS(=O)(=O)c2ccc(C(=O)O)cc2)c2c(Cl)c(Cl)ccc2n1C(c1ccccc1)c1ccccc1 [Example 141, 4-{[2-(1-benzhydryl-4,5-dichloro-2-methyl-1H-indol-3-yl)ethyl]sulfonyl}benzoic acid]

inhibition at 3 µM (read-out: % Inhibition): 50%
SMILES: Cc1c(CCS(=O)(=O)c2ccc(C(=O)O)cc2)c2ccccc2n1C(c1ccccc1)c1ccccc1 [Example 143, 4-{[2-(1-benzhydryl-2-methyl-1H-indol-3-yl)ethyl]sulfonyl}benzoic acid]

inhibition at 12 µM (Conc 12 uM, read-out: % Inhibition): 50%
SMILES: COc1ccc2c(c1)c(CCS(=O)(=O)c1ccc(C(=O)O)cc1)c(C)n2C(c1ccccc1)c1ccccc1 [Example 144, 4-{[2-(1-benzhydryl-5-methoxy-2-methyl-1H-indol-3-yl)ethyl]sulfonyl}benzoic acid]

inhibition at 2.6 µM (Conc 2.6 uM): 50%
SMILES: Cc1c(CCOc2ccc(C(=O)O)cc2)c2cc(Br)ccc2n1C(c1ccccc1)c1ccccc1 [Example 145, 4-[2-(1-benzhydryl-5-bromo-2-methyl-1H-indol-3-yl)ethoxy]benzoic acid]

inhibition at 2.4 µM (Conc 2.4 uM, read-out: % Inhibition): 50%
SMILES: Cc1c(CCS(=O)(=O)c2ccc(C(=O)O)cc2)c2cc(Cl)ccc2n1C(c1ccccc1)c1ccccc1 [Example 147, 4-{[2-(1-benzhydryl-5-chloro-2-methyl-1H-indol-3-yl)ethyl]sulfonyl}benzoic acid]

inhibition at 2.8 µM (Conc 2.8 uM): 50%
SMILES: Cc1c(CC[S+]([O-])c2ccc(C(=O)O)cc2)c2cc(Cl)ccc2n1C(c1ccccc1)c1ccccc1 (stereo not drawn) [Example 148, 4-{[2-(1-benzhydryl-5-chloro-2-methyl-1H-indol-3-yl)ethyl]sulfinyl}benzoic acid]

inhibition at 2.5 µM (read-out: % Inhibition): 50%
SMILES: Cc1c(CCOc2ccc(C(=O)O)cc2)c2cc(Cl)ccc2n1C(c1ccccc1)c1ccccc1 [Example 149, 4-[2-(1-benzhydryl-5-chloro-2-methyl-1H-indol-3-yl)ethoxy]benzoic acid]

inhibition at 2.5 µM (read-out: % Inhibition): 50%
SMILES: O=Cc1c(CCOc2ccc(C(=O)O)cc2)c2cc(Cl)ccc2n1C(c1ccccc1)c1ccccc1 [Example 150, 4-[2-(1-benzhydryl-5-chloro-2-formyl-1H-indol-3-yl)ethoxy]benzoic acid]
